The source of these data is patent publication US4997829A, “Penem compounds, and use thereof” (Suntory Limited, priority 1985, dated 1991).

Assay in all cases: Minimum inhibitory concentration (MIC), agar plate dilution method
Format in all cases: cell-based

Test [1] has as its system E. coli NIHI JC-2. The note with it: 10^6 CFU inoculated, 37° C., 18 hours; for MIC: Escherichia coli, NIHIJC2. On the procedure:
(§1) With regard to the novel compounds obtained according to this invention and the compounds of Reference Examples, their minimum inhibitory concentrations (MIC) were determined by the agar plate dilution method in accordance with the MIC measuring standard method of The Chemotherapeutic Society of Japan, whereby 10^6 colony forming units were inoculated and the minimal concentration to inhibit the microbial growth after inclubation at 37° C. for 18 hours were determined, as shown as μg/ml in Table.

Test [2] relates to K. pneumoniae PC1602. To be noted: 10^6 CFU inoculated, 37° C., 18 hours; for MIC: Klebsiella pneumoniae, PC1602. On the procedure:
as §1

Test [3] concerns E. coli W3630/Rms212. To be noted: for MIC: Escherichia coli, W3630/RMS212, 18 h, read-out: minimum inhibitory concentration (MIC). As for the experimental part: as §1
Test [4] has as its system E. coli W3630/Rms213. The note with it: for MIC: Escherichia coli, W3630/RMS213, 18 h, read-out: minimum inhibitory concentration (MIC). On the procedure:
as §1

Test [5] has as its system B. fragilis GM7000. To be noted: 10^6 CFU inoculated, 37° C., 18 hours; for MIC: Bacteroides fragilis, GM7000. As for the experimental part:
as §1

Test [6] deals with F. varium ATCC8501. The note with it: 10^6 CFU inoculated, 37° C., 18 hours; for MIC: Fusobacterium varium, ATCC8501. On the procedure:
as §1

Test [7] deals with Al. fecalis IFO13111. To be noted: 10^6 CFU inoculated, 37° C., 18 hours. On the procedure: as §1
Test [8] concerns Ser. marcescens IMA 1136. To be noted: 10^6 CFU inoculated, 37° C., 18 hours; for MIC: Serratia marcescens, IMA1136. As for the experimental part:
as §1

Test [9] relates to Pr. vulgaris GN7919. The note with it: 10^6 CFU inoculated, 37° C., 18 hours; for MIC: Proteus vulgaris, GN7919. On the procedure: as §1
The subject of test [10] is Pr. morganii IFO3848. To be noted: 10^6 CFU inoculated, 37° C., 18 hours; for MIC: Morganella morganii, IFO3848. On the procedure:
as §1

Test [11] deals with S. aureus FAD209P JC-1. The note with it: 10^6 CFU inoculated, 37° C., 18 hours; for MIC: Staphylococcus aureus, FAD209PJC1. As for the experimental part: as §1
The subject of test [12] is M. luteus ATCC9341. The note with it: 10^6 CFU inoculated, 37° C., 18 hours; for MIC: Micrococcus luteus, ATCC9341. On the procedure:
as §1

In test [13] the test system is Ent. cloacae 963. The note with it: 10^6 CFU inoculated, 37° C., 18 hours; for MIC: Enterobacter cloacae, 963. As for the experimental part: as §1
Test [14] concerns B. fragilis V-280-1. The note with it: 10^6 CFU inoculated, 37° C., 18 hours; for MIC: Bacteroides fragilis, V2801. As for the experimental part: as §1
Setting [15] is: 10^6 CFU inoculated, 37° C., 18 hours.

As for `C[C@@H](O)[C@H]1C(=O)N2C(C(=O)O)=C(c3ccoc3)S[C@H]12` (relative stereo) [SUN 4196, Potassium (1'R, 5R, 6S and 1'S, 5S, 6R)-2-(3"-furanyl)-6(1'-hydroxyethyl)penem-3-carboxylate, reference compound], the MIC in test [1] worked out at 1.25 µg/mL; in test [2], 3.13 µg/mL; in test [3], 25 µg/mL; in test [4] it was 25 µg/mL; in [5], 0.78 µg/mL; in [6], 6.25 µg/mL. Further, the MIC was determined as 12.5 µg/mL in test [7]; 25 µg/mL in test [8]; 3.13 µg/mL in [9]; 12.5 µg/mL in test [10]; 0.2 µg/mL in test [11]; 0.2 µg/mL in test [12]. The figures for the MIC in test [13] and in [14] were 25 µg/mL and 12.5 µg/mL, respectively.
Regarding `C[C@@H](O)[C@H]1C(=O)N2C(C(=O)O)=C([C@@H]3CCC(=O)O3)S[C@H]12` [SUN 4262, Potassium (1'R, 2"S, 5R, 6S)-6-(1'-hydroxyethyl)-2-[2"-(5"-oxo)oxolanyl]penem-3-carboxylate], the MIC in test [1] is 3.13 µg/mL; in [2], 1.56 µg/mL; in test [3], 3.13 µg/mL; in test [4], 3.13 µg/mL; in [5], 0.2 µg/mL; in test [6], 3.13 µg/mL. Further, the MIC in [7] came out at 3.13 µg/mL; in test [8], 12.5 µg/mL; in test [9] it was 3.13 µg/mL; in [10], 12.5 µg/mL; in test [11], 0.2 µg/mL; in [12] it was 0.2 µg/mL. In addition, the MIC in test [13] came out at 12.5 µg/mL; in test [14], 0.2 µg/mL.
For the compound `C[C@@H](O)[C@@H]1C(=O)N2C(C(=O)[O-])=C([C@H]3CCC(=O)O3)S[C@@H]12.[K+]` [SUN 4325, Potassium (1'R, 2"R, 5S, 6R)-6-(1'-hydroxyethyl)-2[2"-(5"-oxo)oxolanyl]penem-3-carboxylate], the “minimum inhibitory concentration (MIC)” value in [1] is 25 µg/mL; in [2] it was 1.25 µg/mL; in test [3] (setting [15]) it was > 50 µg/mL; in test [4] (setting [15]), 25 µg/mL; in test [5] it was 3.13 µg/mL; in test [6] it was > 12.5 µg/mL. Moreover, the “minimum inhibitory concentration (MIC)” value was 12.5 µg/mL in test [7]; 50 µg/mL in test [8]; > 50 µg/mL in test [9]; 50 µg/mL in [10]; 3.13 µg/mL in test [11]; 1.56 µg/mL in [12]. Moreover, the “minimum inhibitory concentration (MIC)” value in test [13] is > 50 µg/mL; in test [14] it was > 12.5 µg/mL.
As to `C[C@@H](O)[C@H]1C(=O)N2C(C(=O)O)=C([C@H]3CCOC3)S[C@H]12` [SUN 4725, Potassium (1'R, 3"S, 5R, 6S)-6-(1'-hydroxyethyl)-2-(11-tetrahydrofuranyl)penem-3-carboxylate], the MIC is 1.56 µg/mL in test [1]; 0.1 µg/mL in test [2]; 3.13 µg/mL in test [3]; 1.56 µg/mL in [4]; 0.05 µg/mL in test [5]; 0.39 µg/mL in test [6]. In addition, the MIC was found to be 0.78 µg/mL in test [7]; 6.25 µg/mL in [8]; 0.78 µg/mL in test [9]; 12.5 µg/mL in test [10]; 0.05 µg/mL in [11]; 0.1 µg/mL in [12]. In addition, the results for the MIC in test [13] and in [14] were 6.25 µg/mL and 0.05 µg/mL, respectively.
Take `C[C@@H](O)[C@H]1C(=O)N2C(C(=O)O)=C([C@@H]3CCOC3)S[C@H]12` [SUN 4726, Potassium (1'R, 3"R, 5R, 6S)-6-(1'-hydroxyethyl)-2-(3"-tetrahydrofuranyl)penem-3-carboxylate]: the MIC in test [1] is 1.56 µg/mL; in test [2], 0.05 µg/mL; in [3], 3.13 µg/mL; in test [4] it was 1.56 µg/mL; in [5], 0.05 µg/mL; in [6] it was 0.1 µg/mL. Besides, the MIC in [7] came out at 1.56 µg/mL; in test [8], 12.5 µg/mL; in [9], 1.56 µg/mL; in test [10], 12.5 µg/mL; in test [11] it was 0.05 µg/mL; in [12] it was 0.05 µg/mL. Moreover, the MIC in test [13] was determined as 6.25 µg/mL; in test [14] it was 0.05 µg/mL.
As to `C[C@@H](O)[C@H]1C(=O)N2C(C(=O)O)=C([C@@H]3CCCCO3)S[C@H]12` [SUN 4740, Potassium (1'R, 2"S, 5R, 6S)-6-(1'-hydroxyethyl)-2-(2"-tetrahydropyranyl)penem-3-carboxylate], the MIC in test [1] is > 50 µg/mL; in test [2], 3.13 µg/mL; in test [3], > 50 µg/mL; in test [4], > 50 µg/mL; in [5], 0.78 µg/mL; in test [6], 6.25 µg/mL. In addition, the MIC in [7] was 6.25 µg/mL; in test [8], > 50 µg/mL; in test [9], 1.25 µg/mL; in [10], 25 µg/mL; in [11] it was 0.1 µg/mL; in [12], 0.05 µg/mL. Moreover, the results for the MIC in test [13] and in [14] were > 50 µg/mL and 0.78 µg/mL, respectively.
In the case of `C[C@@H](O)[C@H]1C(=O)N2C(C(=O)O)=C([C@H]3CCCCO3)S[C@H]12` [SUN 4741, Potassium (1'R, 2"R, 5R, 6S)-6-(1'-hydroxyethyl)-2-(2"-tetrahydropyranyl)penem-3-carboxylate], the MIC in test [1] was 6.25 µg/mL; in [2], 0.1 µg/mL; in [3] it was 12.5 µg/mL; in [4], 6.25 µg/mL; in test [5] it was 0.1 µg/mL; in [6], 0.39 µg/mL. Further, the MIC stood at 0.78 µg/mL in [7]; 25 µg/mL in test [8]; 3.13 µg/mL in test [9]; 3.13 µg/mL in test [10]; 0.1 µg/mL in test [11]; 0.1 µg/mL in [12]. Further, the figures for the MIC in test [13] and in [14] were 25 µg/mL and 0.1 µg/mL, respectively.
On to `C[C@@H](O)[C@H]1C(=O)N2C(C(=O)O)=C([C@@H]3COCCO3)S[C@H]12` [SUN 4770, Potassium (1'R, 2"S, 5R, 6S)-6-(1'-hydroxyethyl)-2-(2"-para-dioxanyl)penem-3-carboxylate], for which the MIC came out at 1.56 µg/mL in test [1]; 0.78 µg/mL in test [2]; 12.5 µg/mL in test [3]; 12.5 µg/mL in test [4]; 0.39 µg/mL in [5]; 3.13 µg/mL in test [6]. For the same compound, the MIC in test [7] worked out at 6.25 µg/mL; in test [8], 50 µg/mL; in [9] it was 6.25 µg/mL; in test [10] it was 25 µg/mL; in test [11], 0.2 µg/mL; in [12], 0.1 µg/mL. Besides, the figures for the MIC in test [13] and in [14] were 25 µg/mL and 0.39 µg/mL, respectively.
In the case of `C[C@@H](O)[C@H]1C(=O)N2C(C(=O)O)=C([C@H]3COCCO3)S[C@H]12` [SUN 4771, Potassium (1'R, 2"R, 5R, 6S)-6-(1'-hydroxyethyl)-2-(2"-para-dioxanyl)penem-3-carboxylate], the MIC in test [1] came to 1.56 µg/mL; in test [2] it was 0.05 µg/mL; in [3], 1.56 µg/mL; in test [4] it was 0.73 µg/mL; in test [5], 0.025 µg/mL; in test [6] it was 0.78 µg/mL. Further, the MIC in test [7] was determined as 0.78 µg/mL; in test [8], 6.25 µg/mL; in test [9], 0.78 µg/mL; in [10], 6.25 µg/mL; in test [11], 0.05 µg/mL; in [12] it was 0.1 µg/mL. Also, the MIC is 3.13 µg/mL in test [13] and 0.05 µg/mL in test [14].
